Like-named read-outs stand apart in the source and are kept apart here.
Tests used:
[1] = system: Primary T Cell (expanded CD3+ T cells); assay: T cell enhancement of cytokines: IL2 measurement (HTRF) in stimulated expanded CD3+ T cells; format: cell-based, human; settings: plate-bound anti-CD3 and soluble anti-CD28, 24 h, IL2 by HTRF, read-out: IL-2 Primary T Cell EC50
Description: T cells are isolated from whole blood of healthy donors by immunomagnetic negative selection following manufacture's protocol (StemCell Technologies, human T cell isolation kit). Purity of isolated cells is assessed by flow cytometry and yields 95-98% CD3^+ T cells. For expansion of T cells, 1×10^6 cells/well are plated in serum free cell expansion media (ThermoFisher) containing 30 U of recombinant human IL2 (R&D) and stimulated with 25 ul of CD3/CD28 beads (Invitrogen) in 24 well plates for 3-4 days. T cells are then expanded in 175 cm flasks and maintained at a cell density of 1 to 2.5×10^6 cells/ml days by addition of ⅔ of fresh media every 2-3 days. After 10-14 days, cells are frozen in BamBanker freezing media (Thermo) and stored in liquid nitrogen.
For IL2 measurement, expanded CD3^+ T cells are dispensed at 100K cells/well (cultured in X-VIVO 10 Serum-free media) and are stimulated with plate-bound anti-CD3 and soluble anti-CD28 in the presence of vehicle or compound of the disclosure at various concentrations for 24 h. As outlined in the manufacturer's protocol (Cisbio), 16 μL of conditioned media is transferred to a white 384-well low volume plate. Following a 24 h incubation with the anti-IL2 antibodies, the homogenous time resolved fluorescence (HTRF) is measured.

MAP4K1 (HPK1) = molecular target: T1, MAP4K1 (HPK1) (Homo sapiens, UniProt Q92918); assay: Inhibition of MAP4K1 biochemical enzymatic activity (EZReader 2 electrophoretic mobility shift); settings: HPK1 (Invitrogen), S6K2tide 1.5 μM, 120 min; ATP 26 μM or 1000 μM (not given)
T1 construct: purchased Invitrogen
T1 sequence (Q92918 whole entry): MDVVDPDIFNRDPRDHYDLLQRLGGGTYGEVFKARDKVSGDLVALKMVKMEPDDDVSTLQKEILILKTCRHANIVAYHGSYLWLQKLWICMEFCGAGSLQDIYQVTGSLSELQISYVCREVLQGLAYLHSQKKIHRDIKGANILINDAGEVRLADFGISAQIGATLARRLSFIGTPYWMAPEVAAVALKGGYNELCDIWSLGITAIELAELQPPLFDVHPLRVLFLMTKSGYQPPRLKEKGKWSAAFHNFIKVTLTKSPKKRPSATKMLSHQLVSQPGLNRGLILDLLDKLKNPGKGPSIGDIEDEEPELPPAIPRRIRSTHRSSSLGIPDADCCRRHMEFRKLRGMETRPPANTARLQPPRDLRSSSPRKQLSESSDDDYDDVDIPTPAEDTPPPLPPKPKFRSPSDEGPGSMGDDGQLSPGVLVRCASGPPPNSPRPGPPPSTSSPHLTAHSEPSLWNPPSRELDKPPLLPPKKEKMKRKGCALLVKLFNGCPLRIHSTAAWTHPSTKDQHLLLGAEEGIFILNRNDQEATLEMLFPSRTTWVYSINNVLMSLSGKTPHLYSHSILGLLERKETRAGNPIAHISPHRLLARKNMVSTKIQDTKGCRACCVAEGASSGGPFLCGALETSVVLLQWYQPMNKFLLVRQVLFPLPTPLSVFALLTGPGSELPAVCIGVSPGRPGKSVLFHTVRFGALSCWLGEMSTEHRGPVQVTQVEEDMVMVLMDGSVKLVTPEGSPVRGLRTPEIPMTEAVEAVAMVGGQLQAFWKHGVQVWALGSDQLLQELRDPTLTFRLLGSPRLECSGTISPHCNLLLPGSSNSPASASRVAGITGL
In short: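 Untreated enzyme (0.1-15 nM) was incubated with 1.5 μM fluorescent peptide and 20-1000 μM ATP (apparent Km or 1 mM) in HEPES pH 7.5, MgCl2, DTT, Brij 35 at 25° C. for 60-180 min, with 1% DMSO and a 10-point 4-fold compound series. After an EDTA stop, product/substrate peptide peak ratio was read by mobility shift.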

Compound | EC50 ([1]; Homo sapiens, T-cell, 24 h) [nM] | IC50 (MAP4K1 (HPK1)) [nM] | EC50 [1] [nM]
C[C@H](CCS(C)(=O)=O)Oc1ncc(C(C)(C)N)c2cc(Nc3ccc4c(n3)C3(CC3)C(C)(C)OC4=O)ncc12 [Compound 67] | 40 | 0.77 | 
COC[C@@](C)(N)c1cnc(O[C@H]2C[C@@H](S(C)(=O)=O)C2)c2cnc(Nc3ccc4c(n3)C3(CC3)C(C)(C)OC4=O)cc12 [Compound 162] | 32 | 0.3 | 
CC[C@@](C)(N)c1cnc(O[C@H](C)C[C@@H](C)S(C)(=O)=O)c2cnc(Nc3ccc4c(n3)[C@@H](C)[C@H](C)OC4=O)cc12 [Compound 90] | 3 | 0.11 | 
CCC[C@@H](N)c1cnc(O[C@H]2C[C@@H](S(C)(=O)=O)C2)c2cnc(Nc3ccc4c(n3)[C@@H](C)C(C)(C)OC4=O)cc12 (single isomer, unassigned) [Compound 79] | 94 | 0.34 | 
CC[C@@H](N)c1cnc(O[C@H]2C[C@@H](S(=O)(=O)CC)C2)c2cnc(Nc3ccc4c(n3)[C@@H](C)C(C)(C)OC4=O)cc12 (single isomer, unassigned) [Compound 74] | 51 | 0.33 | 
C[C@H](C[C@@H](C)S(C)(=O)=O)Oc1ncc(C(C)(C)N)c2cc(Nc3ccc4c(n3)C3(CC3)[C@@H](C)OC4=O)ncc12 (single isomer, unassigned) [Compound 65] | 11 | 0.2 | 
CC[C@@](C)(N)c1cnc(O[C@@H](C)CCS(C)(=O)=O)c2cnc(Nc3ccc4c(n3)[C@@H](C)[C@@H](C)OC4=O)cc12 (single isomer, unassigned) [Compound 148] | 26 | 0.57 | 
C[C@@H]1c2nc(Nc3cc4c(C(C)(C)N)cnc(O[C@H]5C[C@@H](S(C)(=O)=O)C5)c4cn3)ccc2C(=O)OC1(C)C [Compound 42, (R)-2-((5-(2-Aminopropan-2-yl)-8-(cis-3-(methylsulfonyl)cyclobutoxy)-2,7-naphthyridin-3-yl)amino)-7,7,8-trimethyl-7,8-dihydro-5H-pyrano[4,3-b]pyridin-5-one] | 9 | 0.09 | 
CC[C@@](C)(N)c1cnc(O[C@H](C)C[C@@H](C)S(C)(=O)=O)c2cnc(Nc3ccc4c(n3)[C@H](C)COC4=O)cc12 (single isomer, unassigned) [Compound 48] |  | 0.59 | 55
CC[C@@](C)(N)c1cnc(O[C@@H](C)CCS(=O)(=O)CC)c2cnc(Nc3ccc4c(n3)[C@@H](C)C(C)(C)OC4=O)cc12 [Compound 132] | 66 | 0.19 | 

Continued by falling IC50 (MAP4K1 (HPK1)), values first:

EC50 ([1]; Homo sapiens, T-cell, 24 h) [nM] | IC50 (MAP4K1 (HPK1)) [nM] | EC50 [1] [nM] | Compound
44 | 0.31 |  | CC[C@@](C)(N)c1cnc(O[C@H](C)CCS(C)(=O)=O)c2cnc(Nc3ccc4c(n3)[C@H](C)COC4=O)cc12 (single isomer, unassigned) [Compound 16]
10 | 0.28 |  | CC[C@@](C)(N)c1cnc(O[C@H](C)C[C@@H](C)S(C)(=O)=O)c2cnc(Nc3ccc4c(n3)C3(CC3)C(C)(C)OC4=O)cc12 [Compound 136, 2′-((5-((R)-2-Aminobutan-2-yl)-8-(((2R,4R)-4-(methylsulfonyl)pentan-2-yl)oxy)-2,7-naphthyridin-3-yl)amino)-7′,7′-dimethyl-5′H,7′H-spiro[cyclopropane-1,8′-pyrano[4,3-b]pyridin]-5′-one]
32 | 0.21 |  | COC[C@@](C)(N)c1cnc(O[C@H]2C[C@@H](S(=O)(=O)C3CC3)C2)c2cnc(Nc3ccc4c(n3)[C@@H](C)C(C)(C)OC4=O)cc12 [Compound 145]
105 | 0.21 |  | CCS(=O)(=O)[C@H]1C[C@@H](Nc2ncc(C(C)(C)N)c3cc(Nc4ccc5c(n4)[C@@H](C)C(C)(C)OC5=O)ncc23)C1 [Compound 64]
85 | 0.18 |  | CC[C@@](C)(N)c1cnc(O[C@H](C)C[C@@H](C)[S@](C)(=N)=O)c2cnc(Nc3ccc4c(n3)C3(CC3)[C@@H](C)OC4=O)cc12 (single isomer, unassigned) [Compound 181]
25 | 0.15 |  | C[C@H](C[C@@H](C)S(C)(=O)=O)Oc1ncc(C(C)(C)N)c2cc(Nc3ccc4c(n3)[C@@H](C)[C@H](C)OC4=O)ncc12 [Compound 51]

Reference: patent publication US12202844B2, “MAP4K1 inhibitors” (Blueprint Medicines Corporation, priority 2021, dated 2025)
